Values quoted from earlier work as cited in US7476499B2 (priority 2006, dated 2009).

Tested on: poliovirus virions

Cc1cc(CCCCCCCOc2ccc(C3=NCCO3)cc2)on1 [WIN-51711, Disoxaril]
mode of action on poliovirus: prevents the uncoating of the viral genome after viral cell entry
